The text below walks through data of patent US20070282011A1, “Biodegradable water soluble polymers” (MediVas, LLC, priority 2006, published 2007).

A word on the viability: it is a read-out of living cells in per cent, often relative to untreated cells.

For series [1] the following is noted: ionizable group of side chain R3 of natural amino acid residue; tabulated as a guide; cited from earlier work.
The next series in a line: in vitro. Particulars: endothelial cells.
A further series relates to endothelial cells. Put plainly: In vitro cell culture cytotoxicity, percent cell viability by ATP assay (ViaLight Plus). The following applies: 0.1-40 ng/ml Taxol equivalent.

Description for endothelial cells: In vitro assays were conducted using endothelial cells and smooth muscle cells.
The cells were then fed again with fresh medium (Endothelial Growth Media, EGM-2 BulletKit, Cambrex) and increasing doses of the test substrates were introduced at the following concentrations: 0.1, 0.5, 1, 2, 8 and 40 ng/ml in triplicate. […] The percent cell viability was then determined at 24, 48 and 72 hours following exposure to the test substances, using a standard ATP assay (ViaLight Plus assay kit, Cambrex).

Turning to `NCCCC[C@H](N)C(=O)O` [Lysine], the pK in series [1] was 10.5.

Consider `CC(=O)O[C@H]1C(=O)[C@@]2(C)[C@H]([C@H](OC(=O)c3ccccc3)[C@]3(O)C[C@H](OC(=O)[C@H](O)[C@@H](NC(=O)c4ccccc4)c4ccccc4)C(C)=C1C3(C)C)[C@]1(OC(C)=O)CO[C@@H]1C[C@@H]2O` [Taxol, 5β,20-Epoxy-1,2α,4,7β,10β,13α-hexahydroxytax-11-en-9-one 4,10-diacetate 2-benzoate 13-ester with (2R,3S)—N-benzoyl-3-phenylisoserine], for which, in the series “in vitro”, the viability at 72 h, 0.1 ng/ml amounted to 126%; the viability at 72 h, 0.5 ng/ml came out at 123%; the viability at 72 h, 1 ng/ml stood at 114%; the viability at 72 h, 2 ng/ml turned out to be 90%. Also, in the series “in vitro”, the viability at 72 h, 8 ng/ml was determined as 38.6% and the viability at 72 h, 40 ng/ml was 15.5%.

For the compound `CC(=O)O[C@H]1C(=O)[C@@]2(C)[C@H]([C@H](OC(=O)c3ccccc3)[C@]3(O)C[C@H](OC(=O)[C@H](OC(=O)CCC(=O)O)[C@@H](NC(=O)c4ccccc4)c4ccccc4)C(C)=C1C3(C)C)[C@]1(OC(C)=O)CO[C@@H]1C[C@@H]2O` [Taxol-SA, Taxol-2′-hemisuccinate], the “cytotoxicity to the cells (in words)” value in the series with endothelial cells is recorded as “does not appear to change the cytotoxicity”.

Take `N[C@@H](Cc1c[nH]cn1)C(=O)O` [Histidine]: in series [1], the pK was 6.10.

In the case of `N[C@@H](CCC(=O)O)C(=O)O` [Glutamic acid], the pK in series [1] was 4.07.

In the case of `N[C@@H](Cc1ccc(O)cc1)C(=O)O` [Tyrosine], the pK in series [1] was 10.0.
